Measured values from paper PMC4579270, “Identification and Characterization of an Irreversible Inhibitor of CDK2” (Chemistry & Biology, 2015).
Where two headings read alike, the source gives them in different places.

Experiments:
[1] = tested on: human MCF-7 breast carcinoma cells; parameters: method as in Davies et al., 2002; settings: ref Davies et al., 2002; cited from earlier work
[2] = tested on: phosphorylation of Rb at Thr821 in SKUT-1B cells; experiment: Inhibition of Rb phosphorylation in cells (western blot); assay type: cell-based; settings: for inhibition at 50 µM: Homo sapiens, Skut1B, 1 hr exposure
Method: The cellular potency of NU6300 was examined by measuring the inhibition of Rb phosphorylation following exposure of SKUT-1B cells to the inhibitor for 1 hr. Pre-incubation with 50 μM NU6300 inhibited phosphorylation of Rb at […], a known CDK2 phosphorylation site, by 43%. […] This difference just reached statistical significance (p = 0.04). […] Representative of three different experiments. […] Protein expression levels of phospho-Rb ([…]) were normalized to the levels of total Rb in respective samples using densitometry. Relative protein expression levels are presented as percentage of inhibition of phosphorylation of Rb ([…]) compared with the control cells for each time point. Error bars represent the mean value and SD from three independent experiments. Statistical analysis was performed using the unpaired Student's t test, one-tailed. Western blot analysis was carried out as described previously ([Thomas et al., 2011]) using rabbit anti-[…] phospho-Rb antibody (Invitrogen) or mouse antihuman Rb antibody (BD Pharmingen) to detect phosphorylated and total retinoblastoma protein, respectively. Sample preparation is described in Supplemental Experimental Procedures. page 14: formate) before cryo-coolling. Data processing was carried out using programs of the CCP4 suite (CCP4, 1994). The structure of NU6300 bound to CDK2/cyclin A was solved by molecular replacement using Phaser (McCoy et al., 2007), using as the search model a high-resolution structure of a recruitment peptide bound to CDK2/cyclin A ((Cheng et al., 2006) PDB code 2CCH). A single clear solution was found with an inhibitor bound to each of the two copies of the binary complex in the asymmetric unit. This solution was then subjected to rigid body refinement in REFMAC (Murshudov et al., 1997), to reveal unambiguous electron density in the CDK2 ATP-binding site, consistent with the expected shape of the inhibitor. A model of NU6300 was created using Coot (Emsley et al., 2010). The inhibitor atoms were kept in all subsequent models during refinement carried out by additional rounds of manual rebuilding in Coot and restrained refinement in REFMAC5, including TLS refinement. Towards the end of refinement, waters were added using the Coot water picking utility and manually verified. Western blotting SKUT-1B cells (ATCC, Manassas, USA) were grown in MEM medium supplemented with non-essential amino acids, L-Glutamine, sodium pyruvate and 10% (v/v) foetal calf serum (Sigma, UK). […] Cells were harvested at different time points after the washout and lysed by adding PhosphoSafe extraction reagent (Merck, UK) containing protease inhibitor cocktail (Roche, UK) at the manufacturer's recommended dilution. The harvested cell suspension was placed in an eppendorf tube on ice, centrifuged at 13,000x g for 5 min, and the supernatant (cell lysate) removed for analysis. Subsequent western blot analysis was carried out as described in (Thomas et al., 2011) using rabbit anti-[…] phospho-Rb antibody (Invitrogen, Paisley, UK Cat No. 44-[…]) or mouse anti-human Rb antibody (BD Pharmingen, Oxford, UK Cat No. 554136) to detect phosphorylated and total retinoblastoma protein, respectively.

In the case of `NS(=O)(=O)c1ccc(Nc2nc(OCC3CCCCC3)c3nc[nH]c3n2)cc1` [NU6102, 4-((6-(Cyclohexylmethoxy)-9H-purin-2-yl)amino)benzenesulfonamide], the GI50 [1] is given as 8 µM, the “inhibitory activity lost after washout” value ([2]; 50 μM, 1 hr of washout) is given as “just over half” and the inhibition at 50 µM ([2]; before washout, read-out: inhibition of phosphorylation of Rb at Thr821) is given as 85%. It also gave an inhibition at 50 µM ([2]; then 1-hr washout in drug-free media, read-out: inhibition of phosphorylation of Rb at Thr821 after washout) of 40%.
